Results as given in patent US20160122340A1, “HISTONE DEACETYLASE INHIBITORS BASED ON DERIVATIVES OF TRICYCLIC POLYHYDROACRIDINE AND ANALOGS POSSESSING FUSED SATURATED FIVE-AND-SEVEN-MEMBERED RINGS” (QUIMATRYX, S.L., priority 2013, published 2016).

Experiments:
Human HDAC2 = target: T1, Human HDAC2 (Homo sapiens, UniProt Q92769); assay: In vitro HDAC2 inhibition, fluorogenic peptide substrate; assay type: biochemical; conditions: read-out: IC50 (μM) HDAC-2
T1 construct: Full length with C-terminal His tag, MW=60 kDa; His (C); purchased BioMol SE-500; host or cells: baculovirus / Sf9 cells
Experimental: (§1) In Vitro Inhibitory Activity of Histone Deacetylase: Human Isoforms HDAC1, 2, 3, 4, 5, 6, 7, 8, 9, 10 and 11 and HeLa Cell Line Nuclear Extract (IC50 Data)
(§2) All HDAC assays were performed using acetylated AMC-labeled peptide substrate: • Substrate for isoforms HDAC1, 2, 3, 6, 10, 11 and HeLa nuclear extract assays: Acetylated fluorogenic peptide from p53 residues 379-382 (RHKKAc). • Substrate for isoforms HDAC 4, 5, 7, 9: Fluorogenic Boc-L-Lys(ε-trifluoroacetyl)-AMC. • Substrate for HDAC8 assays: Acetylated fluorogenic peptide from p53 residues 379-382 (RHKAcKAc).
(§3) 50 μM of substrate peptide (see ‘substrate peptides’ section above) and an optimal concentration of the corresponding enzyme (see ‘enzymes’ section above) in the assay buffer and 1% final concentration of DMSO were incubated in the presence of gradient concentrations of inhibitors (10-dose IC50 mode with 3-fold serial dilution) at 30° C. for 2 h. The reactions were carried out in a 96-well microplate for fluorometry in a 50 μl reaction volume. After the deacetylation reaction, Fluor-de-Lys-Developer (BioMol Cat. # KI-105) was added to each well to digest the deacetylated substrate, thus producing the fluorescent signal. The reaction was allowed to develop for 45 minutes at 30° C. with 5% CO2; then the fluorescent signal was measured with an excitation wavelength at 360 nm and an emission wavelength at 460 nm in a microplate-reading fluorometer (GeminiXS; Molecular Devices, Sunnyvale, Calif.). A curve of Deacetylated Standard (Biomol, Cat. # KI-142; made from 100 μM with 1:2 dilution and 10-doses, 6 μl) allowed the conversion of fluorescent signal into micromoles of deacetylated product. All experiments were performed in triplicate. IC50 was calculated by fitting the experimental data to a dose-response curve. DMSO was used as negative control; Trichostatin A (Biomol Cat. # GR-309) was used as positive control inhibitor.

Human HDAC5 = target: T2, Human HDAC5 (Homo sapiens, UniProt Q9UQL6); assay: In vitro HDAC5 inhibition, fluorogenic substrate; assay type: biochemical; conditions: read-out: IC50 (μM) HDAC-5
T2 construct: Full length with Nterminal GST tag, MW=150 kDa; GST (N); purchased BioMol, Hamburg, Germany; host or cells: baculovirus / Sf9 cells
Experimental: as §1, §2, §3

Human HDAC9 = target: T3, Human HDAC9 (Homo sapiens, UniProt Q9UKV0); assay: In vitro HDAC9 inhibition, fluorogenic substrate; assay type: biochemical; conditions: read-out: IC50 (μM) HDAC-9
T3 construct: Amino acids 604-1066 with C-terminal His tag, MW=50.7 kDa; His (C); purchased BioMol, Hamburg, Germany; host or cells: baculovirus expression system
Experimental: as §1, §2, §3

Human HDAC6 = target: T4, Human HDAC6 (Homo sapiens, UniProt Q9UBN7); assay: In vitro HDAC6 inhibition, fluorogenic peptide substrate; assay type: biochemical; conditions: read-out: IC50 (μM) HDAC-6
T4 construct: Full length with N-terminal GST tag, MW=159 kDa; GST (N); purchased BioMol SE-508; host or cells: baculovirus / Sf9 cells
T4 sequence (Q9UBN7 1-1215): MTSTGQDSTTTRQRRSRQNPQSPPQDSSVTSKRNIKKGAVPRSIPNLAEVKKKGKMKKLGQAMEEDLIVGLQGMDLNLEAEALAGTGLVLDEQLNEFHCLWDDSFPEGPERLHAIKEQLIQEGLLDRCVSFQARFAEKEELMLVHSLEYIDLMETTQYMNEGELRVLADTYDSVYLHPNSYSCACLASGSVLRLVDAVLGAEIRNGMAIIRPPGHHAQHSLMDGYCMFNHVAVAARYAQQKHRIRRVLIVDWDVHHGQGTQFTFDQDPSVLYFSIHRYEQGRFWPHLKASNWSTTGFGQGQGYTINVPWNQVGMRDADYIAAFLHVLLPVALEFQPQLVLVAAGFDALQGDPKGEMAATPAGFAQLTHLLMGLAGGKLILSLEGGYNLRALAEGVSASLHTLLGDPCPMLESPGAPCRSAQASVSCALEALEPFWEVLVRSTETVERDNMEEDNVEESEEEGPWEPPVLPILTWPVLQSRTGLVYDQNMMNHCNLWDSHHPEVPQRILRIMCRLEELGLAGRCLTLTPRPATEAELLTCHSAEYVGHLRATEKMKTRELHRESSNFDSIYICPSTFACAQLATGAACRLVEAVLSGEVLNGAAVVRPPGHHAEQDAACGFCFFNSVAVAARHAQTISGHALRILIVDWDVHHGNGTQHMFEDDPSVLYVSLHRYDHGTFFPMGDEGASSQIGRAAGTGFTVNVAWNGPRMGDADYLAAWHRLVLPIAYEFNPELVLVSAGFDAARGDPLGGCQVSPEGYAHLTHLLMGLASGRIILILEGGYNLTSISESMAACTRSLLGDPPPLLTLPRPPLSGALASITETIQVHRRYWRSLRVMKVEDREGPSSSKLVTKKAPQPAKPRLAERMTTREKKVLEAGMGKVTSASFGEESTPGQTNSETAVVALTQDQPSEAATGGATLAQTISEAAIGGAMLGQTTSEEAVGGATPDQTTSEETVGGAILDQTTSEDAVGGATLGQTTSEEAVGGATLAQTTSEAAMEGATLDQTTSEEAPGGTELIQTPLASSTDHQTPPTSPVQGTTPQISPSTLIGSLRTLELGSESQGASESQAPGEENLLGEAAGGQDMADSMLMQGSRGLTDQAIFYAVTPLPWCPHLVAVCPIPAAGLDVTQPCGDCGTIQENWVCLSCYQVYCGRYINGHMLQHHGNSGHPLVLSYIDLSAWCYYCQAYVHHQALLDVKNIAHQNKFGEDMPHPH
Experimental: as §1, §2, §3

Human HDAC11 = target: T5, Human HDAC11 (Homo sapiens, UniProt Q96DB2); assay: In vitro HDAC11 inhibition, fluorogenic peptide substrate; assay type: biochemical; conditions: read-out: IC50 (μM) HDAC-11
T5 construct: GST (N); purchased BioMol SE-560; host or cells: baculovirus expression system
T5 sequence (Q96DB2 1-347): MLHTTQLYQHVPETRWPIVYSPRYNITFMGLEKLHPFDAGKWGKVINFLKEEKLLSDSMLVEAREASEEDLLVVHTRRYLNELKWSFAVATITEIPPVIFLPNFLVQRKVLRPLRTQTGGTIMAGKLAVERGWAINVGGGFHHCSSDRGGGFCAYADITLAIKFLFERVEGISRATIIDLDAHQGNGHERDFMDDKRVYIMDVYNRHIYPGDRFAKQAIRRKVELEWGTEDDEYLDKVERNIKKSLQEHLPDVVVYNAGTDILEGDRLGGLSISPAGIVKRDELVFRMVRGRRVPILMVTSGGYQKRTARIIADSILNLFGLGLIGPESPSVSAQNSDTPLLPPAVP
Experimental: as §1, §2, §3

T1 sequence (Q92769 whole entry): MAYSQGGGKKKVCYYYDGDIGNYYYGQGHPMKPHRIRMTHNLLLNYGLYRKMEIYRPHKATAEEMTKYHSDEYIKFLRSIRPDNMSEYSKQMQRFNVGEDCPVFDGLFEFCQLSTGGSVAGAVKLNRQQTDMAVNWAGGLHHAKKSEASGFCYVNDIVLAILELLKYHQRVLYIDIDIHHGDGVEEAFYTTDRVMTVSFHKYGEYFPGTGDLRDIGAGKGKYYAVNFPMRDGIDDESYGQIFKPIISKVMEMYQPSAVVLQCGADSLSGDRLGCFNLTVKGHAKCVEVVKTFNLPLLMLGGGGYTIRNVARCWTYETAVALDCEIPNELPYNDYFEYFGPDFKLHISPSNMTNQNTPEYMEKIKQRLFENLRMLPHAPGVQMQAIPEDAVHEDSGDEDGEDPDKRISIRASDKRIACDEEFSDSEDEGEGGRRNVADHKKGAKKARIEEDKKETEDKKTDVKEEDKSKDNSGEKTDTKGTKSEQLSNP
T2 sequence (Q9UQL6 1-1123 isoform Q9UQL6-3): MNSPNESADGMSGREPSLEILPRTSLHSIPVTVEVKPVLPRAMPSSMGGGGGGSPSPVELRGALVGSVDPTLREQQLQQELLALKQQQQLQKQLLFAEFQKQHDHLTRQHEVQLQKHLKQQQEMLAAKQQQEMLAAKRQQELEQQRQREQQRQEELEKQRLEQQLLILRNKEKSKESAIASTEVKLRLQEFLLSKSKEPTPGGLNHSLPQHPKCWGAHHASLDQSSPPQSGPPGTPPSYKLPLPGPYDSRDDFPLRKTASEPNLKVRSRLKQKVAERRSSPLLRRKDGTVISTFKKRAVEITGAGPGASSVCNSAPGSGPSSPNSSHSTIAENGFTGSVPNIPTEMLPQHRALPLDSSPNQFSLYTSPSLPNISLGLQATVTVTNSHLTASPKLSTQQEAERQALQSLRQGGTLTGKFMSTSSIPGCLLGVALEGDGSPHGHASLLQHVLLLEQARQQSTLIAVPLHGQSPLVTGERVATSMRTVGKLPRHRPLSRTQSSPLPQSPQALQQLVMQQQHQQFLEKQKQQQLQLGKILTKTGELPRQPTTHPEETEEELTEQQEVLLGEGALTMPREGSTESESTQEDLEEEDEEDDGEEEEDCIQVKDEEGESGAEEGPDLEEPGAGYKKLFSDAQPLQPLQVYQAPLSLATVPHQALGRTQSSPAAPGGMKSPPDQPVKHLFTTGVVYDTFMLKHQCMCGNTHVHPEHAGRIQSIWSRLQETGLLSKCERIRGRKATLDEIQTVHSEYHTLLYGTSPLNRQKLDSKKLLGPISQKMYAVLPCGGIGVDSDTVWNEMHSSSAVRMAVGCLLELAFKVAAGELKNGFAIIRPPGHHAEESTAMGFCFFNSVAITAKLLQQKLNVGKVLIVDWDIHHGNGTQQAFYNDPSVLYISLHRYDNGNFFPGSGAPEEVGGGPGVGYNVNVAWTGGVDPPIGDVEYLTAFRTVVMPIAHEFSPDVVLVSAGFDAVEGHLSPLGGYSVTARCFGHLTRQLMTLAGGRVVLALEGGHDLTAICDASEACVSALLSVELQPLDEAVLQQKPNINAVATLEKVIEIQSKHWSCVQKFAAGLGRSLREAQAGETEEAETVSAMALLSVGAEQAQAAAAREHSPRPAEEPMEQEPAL
T3 sequence (Q9UKV0 604-1066 isoform Q9UKV0-5): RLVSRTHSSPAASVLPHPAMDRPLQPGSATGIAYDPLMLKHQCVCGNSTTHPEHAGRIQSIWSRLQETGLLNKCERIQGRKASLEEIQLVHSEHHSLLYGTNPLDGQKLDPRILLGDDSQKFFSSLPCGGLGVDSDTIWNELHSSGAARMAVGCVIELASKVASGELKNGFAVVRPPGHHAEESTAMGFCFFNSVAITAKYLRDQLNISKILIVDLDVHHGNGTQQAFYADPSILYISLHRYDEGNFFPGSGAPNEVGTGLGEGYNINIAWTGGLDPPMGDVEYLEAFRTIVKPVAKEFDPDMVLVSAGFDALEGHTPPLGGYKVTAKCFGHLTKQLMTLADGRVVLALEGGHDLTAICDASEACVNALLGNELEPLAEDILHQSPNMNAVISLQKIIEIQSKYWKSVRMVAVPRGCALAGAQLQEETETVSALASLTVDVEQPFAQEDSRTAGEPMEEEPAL

Structure (SMILES): O=C(CCCCCNc1c2c(nc3ccccc13)CCCC2)NO [Example 1, N-hydroxy-6-[(1,2,3,4-tetrahydroacridin-9-yl)amino]hexanamide]
- IC50 (Human HDAC2): 6.09 µM
- IC50 (Human HDAC5): 2.14 µM
- IC50 (Human HDAC9): 2.47 µM
- IC50 (Human HDAC6): 0.036 µM
- IC50 (Human HDAC11): 2.21 µM
- melting point: 162 to 164 °C

Structure (SMILES): O=C(CCCCCCNc1c2c(nc3ccccc13)CCCC2)NO [Example 2, N-hydroxy-7-[(1,2,3,4-tetrahydroacridin-9-yl)amino]heptanamide]
- IC50 (Human HDAC2): 0.75 µM
- IC50 (Human HDAC5): 0.44 µM
- IC50 (Human HDAC9): 1.57 µM
- IC50 (Human HDAC6): 0.01 µM
- IC50 (Human HDAC11): 0.59 µM
- melting point: 156 to 157 °C

Structure (SMILES): O=C(CCCCCCNc1c2c(nc3ccccc13)CCC2)NO [Example 3, 7-[(2,3-dihydro-1H-cyclopenta[b]quinolin-9-yl)amino]-N-hydroxyheptanamide]
- IC50 (Human HDAC2): 0.77 µM
- IC50 (Human HDAC5): > 5 µM
- IC50 (Human HDAC9): > 5 µM
- IC50 (Human HDAC11): 0.44 µM
- melting point: 165 to 166 °C

Structure (SMILES): O=C(CCCCCCNc1c2c(nc3ccccc13)CCCCC2)NO [Example 4, N-hydroxy-7-[(7,8,9,10-tetrahydro-6H-cyclohepta[b]quinolin-11-yl)amino]heptanamide]
- IC50 (Human HDAC2): 1.92 µM
- IC50 (Human HDAC5): > 5 µM
- IC50 (Human HDAC9): > 5 µM
- IC50 (Human HDAC6): 0.015 µM
- IC50 (Human HDAC11): 1.22 µM
- melting point: 155 to 156 °C

Structure (SMILES): COc1cccc2c(NCCCCCCC(=O)NO)c3c(nc12)CCCC3 [Example 5, N-hydroxy-7-[(5-methoxy-1,2,3,4-tetrahydroacridin-9-yl)amino]heptanamide]
- IC50 (Human HDAC2): 1.84 µM
- IC50 (Human HDAC5): > 5 µM
- IC50 (Human HDAC9): > 5 µM
- IC50 (Human HDAC6): 0.015 µM
- IC50 (Human HDAC11): 1.04 µM
- melting point: 361 °C

Structure (SMILES): O=C(CCCCCCNc1c2c(nc3ncccc13)CCCC2)NO [Example 7, N-hydroxy-7-[(6,7,8,9-tetrahydrobenzo[b][1,8]naphthyridin-5-yl)amino]heptanamide]
- IC50 (Human HDAC2): 4.46 µM
- IC50 (Human HDAC5): > 5 µM
- IC50 (Human HDAC9): > 5 µM
- IC50 (Human HDAC6): 0.038 µM
- IC50 (Human HDAC11): 0.69 µM
- melting point: 234 to 235 °C

Structure (SMILES): O=C(CCCCCCNc1c2c(nc3cnccc13)CCCC2)NO [Example 8, N-hydroxy-7-[(6,7,8,9-tetrahydrobenzo[b][1,7]naphthyridin-5-yl)amino]heptanamide]
- IC50 (Human HDAC2): 2.41 µM
- IC50 (Human HDAC5): > 5 µM
- IC50 (Human HDAC9): > 5 µM
- IC50 (Human HDAC6): 0.033 µM
- IC50 (Human HDAC11): 0.6 µM
- melting point: 56.7 °C

Structure (SMILES): O=C(CCCCCNC(=O)c1c2c(nc3ccccc13)CCCC2)NO [Example 10, N-[6-(hydroxyamino)-6-oxohexyl]-1,2,3,4-tetrahydroacridine-9-carboxamide]
- IC50 (Human HDAC2): > 5 µM
- IC50 (Human HDAC5): > 5 µM
- IC50 (Human HDAC6): 0.33 µM
- IC50 (Human HDAC11): > 5 µM
- melting point: 187 to 188 °C

Structure (SMILES): O=C(CCCCCCNC(=O)c1c2c(nc3ccccc13)CCCC2)NO [Example 11, N-[7-(hydroxyamino)-7-oxoheptyl]-1,2,3,4-tetrahydroacridine-9-carboxamide]
- IC50 (Human HDAC2): 8.48 µM
- IC50 (Human HDAC5): 4.24 µM
- IC50 (Human HDAC9): 3.17 µM
- IC50 (Human HDAC6): 0.19 µM
- IC50 (Human HDAC11): 4.1 µM
- melting point: 185 to 186 °C
